Assay results from ChEMBL document CHEMBL1201862, “PubChem BioAssay data set” (2004).
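In this assay, cells in 96-well plates receive the compound at five concentrations for 48 hours. Endpoints are linearly interpolated between the surrounding concentrations. GI50 = concentration required for 50% inhibition of growth.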 Active and inactive are the calls of the source. Cut-off read from the data, not from the text of the source: active = GI50 up to about 1.1 µM and inactive = higher.

Tests used:
Experiment in all cases: inhibition of tumour cell growth, NCI panel, 48 h
[1] = system: SNB-19
[2] = system: HL-60
[3] = system: NCI-H460
[4] = system: CCRF-CEM
[5] = system: LOX IMVI
[6] = system: Hs-578T
[7] = system: OVCAR-5
[8] = system: K562
[9] = system: OVCAR-3
[10] = system: SNB-75
[11] = system: HCC 2998
[12] = system: RPMI-8226
[13] = system: TK-10
[14] = system: EKVX
[15] = system: SF-268
[16] = system: HCT-116
[17] = system: A498
[18] = system: ACHN
[19] = system: SR

| Structure (SMILES) | GI50 [1] | GI50 [2] | GI50 [3] | GI50 [4] | GI50 [5] | GI50 [6] | GI50 [7] | GI50 [8] | GI50 [9] | GI50 [10] | GI50 [11] | GI50 [12] | GI50 [13] | GI50 [14] | GI50 [15] | GI50 [16] | GI50 [17] | GI50 [18] | GI50 [19] |
| --- | --- | --- | --- | --- | --- | --- | --- | --- | --- | --- | --- | --- | --- | --- | --- | --- | --- | --- | --- |
| O=C(CCc1ccccc1)ON1C(=S)C(c2ccccc2)(c2ccccc2)N=C1Sc1ccccc1 | 52.7 µM (inactive) | 31.6 µM (inactive) | 12.4 µM (inactive) | 20.3 µM (inactive) | 5.52 µM (inactive) | 38.7 µM (inactive) | > 100 µM (inactive) | 36.1 µM (inactive) | 60 µM (inactive) | 37.9 µM (inactive) | 46.6 µM (inactive) | 22 µM (inactive) | 89.9 µM (inactive) | 26.6 µM (inactive) | 22.7 µM (inactive) | 19.3 µM (inactive) | > 100 µM (inactive) | 48.1 µM (inactive) | – |
| c1ccc(C2=Nc3nc4ccccc4n3C(c3ccccc3)C2)cc1 (stereo unspecified) | 44.8 µM (inactive) | > 100 µM (inactive) | > 100 µM (inactive) | > 100 µM (inactive) | > 100 µM (inactive) | 45.5 µM (inactive) | > 100 µM (inactive) | > 100 µM (inactive) | > 100 µM (inactive) | 27.9 µM (inactive) | – | > 100 µM (inactive) | > 100 µM (inactive) | > 100 µM (inactive) | > 100 µM (inactive) | > 100 µM (inactive) | > 100 µM (inactive) | > 100 µM (inactive) | > 100 µM (inactive) |
| CC(C)(C)OC(=O)n1cc(C2CN(O)C(=O)C23CCC(=O)N3Cc2ccccc2)c2ccccc21 (stereo unspecified) | 68.7 µM (inactive) | 54.2 µM (inactive) | 56.4 µM (inactive) | 83.2 µM (inactive) | 21.2 µM (inactive) | 42.3 µM (inactive) | 46.9 µM (inactive) | 78.7 µM (inactive) | 66.5 µM (inactive) | 32.7 µM (inactive) | – | 31.6 µM (inactive) | 32.8 µM (inactive) | 21.9 µM (inactive) | 86.3 µM (inactive) | 66.2 µM (inactive) | 24.8 µM (inactive) | – | 44.6 µM (inactive) |
| CC(=O)Oc1c(OC(C)C)c(C)c(O[Si](C(C)C)(C(C)C)C(C)C)c2[nH]c3ccccc3c12 | > 100 µM (inactive) | 2.62 µM (inactive) | > 100 µM (inactive) | 60.1 µM (inactive) | > 100 µM (inactive) | > 100 µM (inactive) | > 100 µM (inactive) | > 100 µM (inactive) | > 100 µM (inactive) | > 100 µM (inactive) | – | 71.1 µM (inactive) | > 100 µM (inactive) | > 45 µM (inactive) | > 100 µM (inactive) | 63.4 µM (inactive) | – | > 100 µM (inactive) | 25.5 µM (inactive) |
| CN[C@H]1CC[C@]23C[C@]24CC[C@]2(C)[C@@H]([C@H](C)N(C)C)CC[C@@]2(C)[C@@H]4CC[C@H]3C1(C)C | 16.7 µM (inactive) | 10.8 µM (inactive) | 18.2 µM (inactive) | 15.1 µM (inactive) | 5.32 µM (inactive) | 16.8 µM (inactive) | 21 µM (inactive) | – | 14.3 µM (inactive) | 14.4 µM (inactive) | 13.4 µM (inactive) | 12.9 µM (inactive) | 18.3 µM (inactive) | 18.2 µM (inactive) | 14.4 µM (inactive) | 11.4 µM (inactive) | 20.6 µM (inactive) | 15.6 µM (inactive) | – |
| COc1cccc2c1-c1nc(N)c3c(OC)cccc3c1C2=O | – | 19.6 µM (inactive) | – | > 100 µM (inactive) | 59.7 µM (inactive) | 22.2 µM (inactive) | > 100 µM (inactive) | 64.7 µM (inactive) | > 100 µM (inactive) | 22.3 µM (inactive) | – | > 100 µM (inactive) | > 100 µM (inactive) | 54.1 µM (inactive) | 68.4 µM (inactive) | > 100 µM (inactive) | > 100 µM (inactive) | – | > 100 µM (inactive) |
| COc1cc(/C=N/NC(=O)c2ccc(NC(C)=O)cc2OC)ccc1O | 74.3 µM (inactive) | > 100 µM (inactive) | – | > 100 µM (inactive) | 47.4 µM (inactive) | 32.4 µM (inactive) | > 100 µM (inactive) | > 100 µM (inactive) | > 100 µM (inactive) | 26.7 µM (inactive) | – | > 100 µM (inactive) | – | 77.6 µM (inactive) | 34.2 µM (inactive) | 61.8 µM (inactive) | 86.3 µM (inactive) | 38.9 µM (inactive) | > 100 µM (inactive) |
| Nc1ccc(-c2nc3ccc(F)cc3s2)cc1 | 32.8 µM (inactive) | – | – | 19.1 µM (inactive) | 28.7 µM (inactive) | 20.2 µM (inactive) | – | 43.7 µM (inactive) | 22.5 µM (inactive) | 31.5 µM (inactive) | – | 18.6 µM (inactive) | 26.6 µM (inactive) | 32 µM (inactive) | 37.3 µM (inactive) | 36.6 µM (inactive) | 30 µM (inactive) | 21 µM (inactive) | 77.3 µM (inactive) |
| Cc1nc2n(c1/C=C1/C(=O)Nc3ccccc31)CCS2 | > 100 µM (inactive) | 32.1 µM (inactive) | 35.7 µM (inactive) | 47.1 µM (inactive) | 72.4 µM (inactive) | 39.5 µM (inactive) | > 100 µM (inactive) | 33.3 µM (inactive) | 70.1 µM (inactive) | 17.3 µM (inactive) | 20.8 µM (inactive) | 47.1 µM (inactive) | 31.6 µM (inactive) | 46.7 µM (inactive) | 81.8 µM (inactive) | 33.6 µM (inactive) | 31.2 µM (inactive) | 75.3 µM (inactive) | – |
| CSCCC(NC(=O)C(Cc1c[nH]c2ccccc12)NC(=O)CCNC(=O)OC(C)(C)C)C(=O)NC(CC(=O)O)C(=O)NC(Cc1ccccc1)C(N)=O (stereo unspecified) | – | > 50 µM (inactive) | – | > 50 µM (inactive) | > 50 µM (inactive) | > 50 µM (inactive) | > 50 µM (inactive) | > 50 µM (inactive) | > 50 µM (inactive) | > 50 µM (inactive) | > 50 µM (inactive) | > 50 µM (inactive) | > 50 µM (inactive) | > 50 µM (inactive) | > 50 µM (inactive) | > 50 µM (inactive) | > 50 µM (inactive) | – | – |
| Oc1ccc(Cc2cc(Cl)cc(Cl)c2O)cc1Cl | 16.9 µM (inactive) | 1.04 µM (active) | 17.8 µM (inactive) | – | 16.6 µM (inactive) | 18 µM (inactive) | 18.4 µM (inactive) | 15.5 µM (inactive) | 18.7 µM (inactive) | < 0.01 µM (active) | – | 22.3 µM (inactive) | 16.3 µM (inactive) | 19.4 µM (inactive) | 16.6 µM (inactive) | 18.7 µM (inactive) | 19.5 µM (inactive) | 17.4 µM (inactive) | 14.2 µM (inactive) |
| O=C(/C=C/c1ccc(-c2ccccc2)cc1)NCc1ccc(C(=O)NCc2ccccc2)cc1 | > 100 µM (inactive) | – | > 100 µM (inactive) | > 100 µM (inactive) | > 100 µM (inactive) | > 100 µM (inactive) | > 100 µM (inactive) | – | > 100 µM (inactive) | > 100 µM (inactive) | > 100 µM (inactive) | – | > 100 µM (inactive) | > 100 µM (inactive) | > 100 µM (inactive) | > 100 µM (inactive) | > 100 µM (inactive) | > 100 µM (inactive) | – |
| C1CNCCN2CCCNCCN(C1)CC2 | > 100 µM (inactive) | – | > 100 µM (inactive) | 2 µM (inactive) | > 100 µM (inactive) | > 100 µM (inactive) | > 100 µM (inactive) | – | > 100 µM (inactive) | > 100 µM (inactive) | – | > 100 µM (inactive) | > 100 µM (inactive) | > 100 µM (inactive) | > 100 µM (inactive) | > 100 µM (inactive) | > 100 µM (inactive) | > 100 µM (inactive) | > 100 µM (inactive) |
| Cc1cn(C2CC(N=[N+]=[N-])C(CO)O2)c(=O)n(CCCCBr)c1=O (stereo unspecified) | > 100 µM (inactive) | – | > 100 µM (inactive) | < 0.01 µM (active) | 89.7 µM (inactive) | > 100 µM (inactive) | > 100 µM (inactive) | > 100 µM (inactive) | 40.9 µM (inactive) | 63.2 µM (inactive) | 65.5 µM (inactive) | 50.7 µM (inactive) | > 100 µM (inactive) | > 100 µM (inactive) | > 100 µM (inactive) | > 100 µM (inactive) | > 100 µM (inactive) | > 100 µM (inactive) | – |
| Cc1nc(Nc2ccccc2Cl)sc1C(=O)CC(=O)C(N)=O | 41 µM (inactive) | 11.8 µM (inactive) | 32.6 µM (inactive) | 32.6 µM (inactive) | 27.4 µM (inactive) | 59.2 µM (inactive) | > 100 µM (inactive) | 33.4 µM (inactive) | > 100 µM (inactive) | 6.87 µM (inactive) | 51.4 µM (inactive) | 26.3 µM (inactive) | > 100 µM (inactive) | 18.2 µM (inactive) | > 100 µM (inactive) | 10.9 µM (inactive) | 19.7 µM (inactive) | 32.7 µM (inactive) | – |
| O=C(O)c1ccccc1-c1ccccc1C(=O)Nc1ccc2c(c1)nc(O)c1ccccc12 | 83.4 µM (inactive) | 94.8 µM (inactive) | > 100 µM (inactive) | 62.8 µM (inactive) | 48.9 µM (inactive) | 98.4 µM (inactive) | > 100 µM (inactive) | 39.6 µM (inactive) | > 100 µM (inactive) | 93.3 µM (inactive) | – | > 100 µM (inactive) | > 100 µM (inactive) | > 100 µM (inactive) | > 100 µM (inactive) | > 100 µM (inactive) | 34.3 µM (inactive) | > 100 µM (inactive) | – |
